# Test results published in PubChem BioAssay AID1508612.
# Test: passive permeability, PAMPA, ADME assay (AID 1508612)
# Settings: pH 7.4, 30.0 min, 50.0 µM
row,SMILES,Papp
1,COc1cc(N2CCC(N3CCN(C)CC3)CC2)ccc1Nc1ncc(Cl)c(Nc2ccccc2P(C)(C)=O)n1,266 ×10⁻⁶ cm/s
2,O=S(=O)(Nc1nccs1)c1ccc(NCc2cccc(O)c2)cc1,1.15 ×10⁻⁶ cm/s
3,NC(=O)C1CCN(c2nccc(-c3ccc4c(c3)OCCO4)n2)CC1,289 ×10⁻⁶ cm/s
4,O=C(NCCc1ccc(OCC(F)(F)F)c(OCC(F)(F)F)c1)c1cc2sccc2n1Cc1ccccc1,24.5 ×10⁻⁶ cm/s
5,N#Cc1ccc(C(=O)Nc2ccc(Cl)c(-c3nc4cc(Cl)ccc4o3)c2)c(F)c1,< 1 ×10⁻⁶ cm/s
6,O=C1Nc2ccccc2C1Cc1cc(Cl)c(O)c(Cl)c1 (configuration not stated),8.8 ×10⁻⁶ cm/s
7,Fc1ccc(Nc2nc(-c3ccccc3)cc(-c3ccncc3)n2)cc1F,< 1 ×10⁻⁶ cm/s
8,Cc1cc(-c2nnc3n2CCCCC3)c(C)n1-c1ccc(C(C)(C)C)cc1,> 1000 ×10⁻⁶ cm/s
9,CC[C@@]1(O)C(=O)OCc2c1cc1n(c2=O)Cc2c-1nc1ccccc1c2CCNC(C)C,< 1 ×10⁻⁶ cm/s
10,COc1cccc(CNc2ccc(S(=O)(=O)Nc3cccc(N4CCNCC4)c3)cc2)c1O,16 ×10⁻⁶ cm/s
11,COCCCOc1ccnc(CS(=O)c2nc3ccccc3[nH]2)c1C (configuration not stated),212 ×10⁻⁶ cm/s
12,CN(C)c1cccc(-c2cnc(Nc3cccnc3)c3c2CCO3)c1,> 1000 ×10⁻⁶ cm/s
13,Cc1ccc(NC(=O)N2CCN(c3nc(N)nc4sc(-c5cccnc5)nc34)CC2)cc1,577 ×10⁻⁶ cm/s
14,CC[C@@]1(O)C(=O)OCc2c1cc1n(c2=O)Cc2cc3ccccc3nc2-1,68.3 ×10⁻⁶ cm/s
15,Cc1ccc(Nc2nc(C)c(NC(=O)c3ccc(C)cc3)c(Nc3ccc(C)cc3)n2)cc1,291 ×10⁻⁶ cm/s
16,CC(C)(C)c1ccc(S(=O)(=O)N2CCC(c3ccncc3)CC2)cc1,320 ×10⁻⁶ cm/s
17,COc1cc(Cl)c(C)cc1NS(=O)(=O)c1c(C)nc2sccn2c1=O,787 ×10⁻⁶ cm/s
18,O=C(Nc1ccc(C(=O)Nc2nccs2)cc1)c1ccc2ccccc2c1,> 1000 ×10⁻⁶ cm/s
19,O=C(Nc1cccc(C(F)(F)F)c1)c1ccccc1NC(=O)C1CCCCC1,< 1 ×10⁻⁶ cm/s
20,CC[C@H](NC(=O)c1c(O)c(-c2ccccc2)nc2ccccc12)c1ccccc1,298 ×10⁻⁶ cm/s
21,COc1ccc(-c2nc(N3CCOCC3)c3sc(CN(C)c4ncc(C(=O)NO)cn4)cc3n2)cn1,496 ×10⁻⁶ cm/s

row,SMILES,Papp
1,Cn1c2ccccc2c(=O)c2c(=O)n(-c3ccccc3)c(C3CCCCC3)nc21,440 ×10⁻⁶ cm/s
2,Cc1cc2c(C(N)=O)cccc2n1-c1nc2c(c(NCc3ccccc3)n1)COCC2,597 ×10⁻⁶ cm/s
3,COc1ccccc1N1CCN(C2CCCCC2NS(=O)(=O)c2ccccc2)CC1 (configuration not stated),> 1000 ×10⁻⁶ cm/s
4,O=c1[nH]cnc2c1ccn2C1OC(CO)C(O)C1O (configuration not stated),3.01 ×10⁻⁶ cm/s
5,COc1ccc(NC(=O)C2=C(C)NC(Nc3nc4ccccc4o3)=NC2c2ccccc2Br)cc1 (configuration not stated),371 ×10⁻⁶ cm/s
6,Cc1c(NC2=C(Cl)C(=O)N(c3ccccc3)C2=O)c(=O)n(-c2ccccc2)n1C,123 ×10⁻⁶ cm/s
7,CCOC(=O)c1[nH]c(C)c(CCC(=O)N2CCN(c3cccc(C)c3C)CC2)c1C,> 1000 ×10⁻⁶ cm/s
8,C[C@H]1[C@@H](CCC(=O)Nc2ccc(F)cc2)O[C@@H]2O[C@]3(C)CC[C@@H]4[C@H](C)CC[C@@H]1[C@@]24OO3,> 1000 ×10⁻⁶ cm/s
9,Fc1cnc(-c2ccccc2C(F)F)nc1NCc1ccc(-n2ccnn2)cc1,> 1000 ×10⁻⁶ cm/s
10,CSc1ccccc1N1CCN(CCCCCC(=O)NC2CCCc3ccccc32)CC1 (configuration not stated),> 1000 ×10⁻⁶ cm/s
11,CN(C)c1ccc(-c2cc[nH]c(=O)c2N)cc1,116 ×10⁻⁶ cm/s
12,Fc1ccc(Nc2nc(-c3ccncc3)ncc2-c2ccccc2)cc1F,< 1 ×10⁻⁶ cm/s
13,Fc1cc(F)cc(Nc2nc(-c3ccncc3)nc3ccccc23)c1,84.9 ×10⁻⁶ cm/s
14,Cc1cc(-c2nnc3n2CCCCC3)c(C)n1-c1ccc(C(F)(F)F)cc1,> 1000 ×10⁻⁶ cm/s
15,COc1ccc(C2c3c(oc4ccc(Cl)cc4c3=O)C(=O)N2CCCN(C)C)cc1OC (configuration not stated),235 ×10⁻⁶ cm/s
16,CCCCNC(=O)CN1CCN(c2ncc(NC(=O)c3ccc(Cl)cc3)cc2C(=O)O)CC1,< 1 ×10⁻⁶ cm/s
17,COc1cc(-c2cn(C)c(=O)c3cnccc23)c(OC)cc1CN(C)C,28.9 ×10⁻⁶ cm/s
18,Cc1cc(C)nc(NC(=S)N2CCN(Cc3ccc(C(F)(F)F)cc3)CC2)c1,> 1000 ×10⁻⁶ cm/s
19,NC(=O)C1CCN(c2ncc(-c3cccc(N4CCOCC4)c3)s2)CC1,374 ×10⁻⁶ cm/s
20,COc1cc(Cl)c(C)cc1NC(=O)CSc1ncc(S(=O)(=O)c2ccc(C(C)(C)C)cc2)c(=O)[nH]1,16.2 ×10⁻⁶ cm/s
21,CCOc1ccc(CN2C(=O)c3ccccc3Sc3ccc(C(=O)NC4CCC(C)CC4)cc32)cc1 (configuration not stated),< 1 ×10⁻⁶ cm/s

row,SMILES,Papp
1,Cc1ccc(S(=O)(=O)Nc2cnccc2C(=O)Nc2ccc(N3CCOCC3)cc2)cc1,53.3 ×10⁻⁶ cm/s
2,CCNC(=O)c1ccc(-c2ccc3ncnc(NCC4CCCO4)c3c2)o1 (configuration not stated),146 ×10⁻⁶ cm/s
3,Cc1ccc(C2=NN=C(NC(=O)CSc3nncn3C)SC2)cc1,147 ×10⁻⁶ cm/s
4,CC(=O)Nc1cc(-c2nc(Nc3ccc(F)c(F)c3)c3ccccc3n2)ccn1,438 ×10⁻⁶ cm/s
5,O=c1c(-c2cccs2)ccc2n1C[C@H]1C[C@@H]2CN(C2CCOCC2)C1,460 ×10⁻⁶ cm/s
6,CCOc1ccc(CCNC(=O)c2cc3sccc3n2CCN2CCN(C)CC2)cc1OCC,> 1000 ×10⁻⁶ cm/s
7,O=C(Nc1nc(-c2ccccc2)cs1)c1ccncc1NS(=O)(=O)c1cccc(Cl)c1,754 ×10⁻⁶ cm/s
8,Cc1ccc(-c2cc(C(=O)NCc3cnn(C)c3)c3cc(Br)ccc3n2)cc1,24.2 ×10⁻⁶ cm/s
9,Cc1cc(-c2nnc3n2CCCCC3)c(C)n1-c1cccnc1,49.2 ×10⁻⁶ cm/s
10,Fc1ccc(Nc2nc(-n3ccnc3)nc3ccccc23)cc1F,223 ×10⁻⁶ cm/s
11,Fc1cc(Nc2nc(-c3ccncc3)nc3ccccc23)ccc1-c1cncnc1,7.26 ×10⁻⁶ cm/s
12,O=C(C1CC(=O)N(c2n[nH]c3ccccc23)C1)N1CCC(c2noc3cc(F)ccc23)CC1 (configuration not stated),726 ×10⁻⁶ cm/s
13,Cc1noc(C)c1-c1ccc(-c2cc(C(N)=O)c(NC(N)=O)s2)c(O[C@H]2CCNC2)c1,< 1 ×10⁻⁶ cm/s
14,COc1cccc(CNc2ccc(S(=O)(=O)Nc3ccc(C)nc3)cc2)c1O,973 ×10⁻⁶ cm/s
15,Brc1ccc(-c2csc(N3CCNCC3)n2)cc1,> 1000 ×10⁻⁶ cm/s
16,O=[S+]([O-])(Nc1nccs1)c1ccc(NCc2cccc(Cl)c2)cc1,395 ×10⁻⁶ cm/s
17,COc1cc(NC(=O)c2nc3ccccc3n(C)c2=O)cc(OC)c1OC,145 ×10⁻⁶ cm/s
18,O=C(Nc1ccc(F)cc1F)c1cc(-c2ccc[nH]2)n[nH]1,103 ×10⁻⁶ cm/s
19,Cc1nn2c(c1-c1ccccc1-c1ccccc1)N(Cc1ccc(O)cc1)CCC2,1.8 ×10⁻⁶ cm/s
20,O=[S+]([O-])(Nc1ccc(N2CCNCC2)cc1)c1ccc(NCc2ccc(Cl)cc2O)cc1,6.78 ×10⁻⁶ cm/s

# Next, values leading:
row,Papp,SMILES
1,561 ×10⁻⁶ cm/s,CC[C@@H]1C(=O)N(C)c2cnc(Nc3ccc(C(=O)NC4CCN(C)CC4)cc3OC)nc2N1C1CCCC1
2,< 1 ×10⁻⁶ cm/s,COc1ccc(-n2nc(C3CCCN(C(=O)c4ccccc4)C3)[nH]c2=O)cc1 (configuration not stated)
3,276 ×10⁻⁶ cm/s,Cc1c(C(=O)OCCOc2ccccc2)[nH]c2c1C(=O)CC(c1ccccc1)C2 (configuration not stated)
4,156 ×10⁻⁶ cm/s,CC(=O)c1ccc(N2CCN(c3ccc(NC(=O)c4ccc(F)cc4)cc3C(=O)O)CC2)cc1
5,45.2 ×10⁻⁶ cm/s,Cc1ccc(S(=O)(=O)Nc2cnccc2C(=O)Nc2nc(-c3ccc4c(c3)CCCC4)cs2)cc1
6,391 ×10⁻⁶ cm/s,c1cn2cc(-c3ccc4cn[nH]c4c3)nc(Nc3ccc(N4CCOCC4)cc3)c2n1
7,838 ×10⁻⁶ cm/s,CN(C)CCNC(=O)c1nc(-c2ccccc2)cc2[nH]ccc12
8,4.9 ×10⁻⁶ cm/s,Cc1sc2c(c1C)C(c1ccc(Cl)cc1)=N[C@@H](CC(=O)Nc1ccc(OCCOCCOCCOCCNc3cccc4c3C(=O)N(C3CCC(=O)NC3=O)C4=O)cc1)c1nnc(C)n1-2 (some centres not stated)
9,799 ×10⁻⁶ cm/s,Fc1cccc(Nc2nc(-c3ccncc3)nc3ccccc23)c1F
10,472 ×10⁻⁶ cm/s,O=C(c1ccc2c(c1)ncn2-c1ccccc1)N1CCCCC1
11,9.91 ×10⁻⁶ cm/s,COc1cc(=O)n2c(c1C(=O)N(C)Cc1cscn1)CCN(C(=O)c1ccc(C)cc1C)CC2
12,120 ×10⁻⁶ cm/s,O=c1cc(-c2ccc(O)c(O)c2)oc2cc(O)cc(O)c12
13,45.6 ×10⁻⁶ cm/s,O=C(c1ccc(-c2ncc3cnc(-c4ccccc4)cn23)cc1)N1CCS(=O)(=O)CC1
14,< 1 ×10⁻⁶ cm/s,CCc1ccc(NC(=O)c2[nH]c(C)c(C(C)=O)c2C)cc1S(=O)(=O)Nc1ccc(Br)cc1
15,580 ×10⁻⁶ cm/s,CCOc1ccc(CCNC(=O)c2ccccc2)cc1OCC
16,> 1000 ×10⁻⁶ cm/s,Cc1ccc(-c2nnc(Nc3ccc(Br)cc3)c3ccccc23)cc1S(=O)(=O)N1CCN(C)CC1
17,> 1000 ×10⁻⁶ cm/s,CC(C)(C)n1nc(-c2ccc(Cl)cc2)c2c(N)ncnc21
18,< 1 ×10⁻⁶ cm/s,CC(C)CC(=O)Nc1n[nH]c2c1CN(C(=O)C1CCN(C)CC1)C2(C)C
19,989 ×10⁻⁶ cm/s,COc1ccc(NC(=O)c2[nH]c(C)c(C(C)=O)c2C)cc1S(=O)(=O)N1CCCCCC1
20,> 1000 ×10⁻⁶ cm/s,Cc1nn2c(c1-c1ccccc1OCc1ccccc1)N(C(=O)Cc1ccc3c(c1)OCO3)CCC2

row,Papp,SMILES
1,587 ×10⁻⁶ cm/s,O=C(NC1CCCc2c1cnn2-c1ccc(O)cc1)c1ccccn1 (configuration not stated)
2,179 ×10⁻⁶ cm/s,CCCN(CCC)CCc1cccc2c1CC(=O)N2
3,664 ×10⁻⁶ cm/s,Cc1ccc2c(c1)N(S(=O)(=O)c1cc(-c3onc(C)c3C)ccc1C)CCO2
4,< 1 ×10⁻⁶ cm/s,CC(=O)c1ccc(N2CCN(S(=O)(=O)c3ccc4[nH]c(=O)[nH]c4c3)CC2)cc1
5,> 1000 ×10⁻⁶ cm/s,COc1ccccc1OCCNCC(O)COc1cccc2[nH]c3ccccc3c12 (configuration not stated)
6,455 ×10⁻⁶ cm/s,CC(=O)Nc1cccc(-c2nc(-c3c(C)noc3C)cc3c2cc(-c2ccccc2)n3C)c1
7,687 ×10⁻⁶ cm/s,CCC(=O)NC(c1ccc(OC)cc1)c1cc(Cl)c2cccnc2c1O (configuration not stated)
8,27.7 ×10⁻⁶ cm/s,Cc1ccc(S(=O)(=O)Nc2cnccc2C(=O)NCc2ccccc2)cc1
9,19.8 ×10⁻⁶ cm/s,COc1cc(Nc2nc(-c3ccncc3)nc3ccccc23)ccc1Cl
10,241 ×10⁻⁶ cm/s,NC(=O)C1CCN(c2nc(-c3ccc(Br)cc3)cs2)CC1
11,341 ×10⁻⁶ cm/s,CC[C@H](C)[C@@H]([C@@H](CC(=O)N1CCC[C@H]1[C@H](OC)[C@@H](C)C(=O)N[C@@H](Cc1ccccc1)c1nccs1)OC)N(C)C(=O)[C@@H](NC(=O)[C@H](C(C)C)N(C)C)C(C)C
12,517 ×10⁻⁶ cm/s,COc1ccc(-c2noc([C@@H]3Cc4nc[nH]c4CN3C(=O)NC3CCCCC3)n2)cc1
13,486 ×10⁻⁶ cm/s,CCOC(=O)C1CCN(C(=O)C(C)(C)NC(=O)Nc2ccc(-c3ccccc3)cc2)CC1
14,> 1000 ×10⁻⁶ cm/s,CC1=C(C(=O)Nc2nncs2)C(c2nn(C)cc2Cl)N=C(Nc2nc3ccccc3o2)N1 (configuration not stated)
15,> 1000 ×10⁻⁶ cm/s,CCCNC(=O)c1ccc2c(c1)ncn2-c1cc(C)cc(C)c1
16,> 1000 ×10⁻⁶ cm/s,Cc1ccnc(NC(=S)N2CCN(c3ccc(Cl)c(Cl)c3)CC2)c1
17,123 ×10⁻⁶ cm/s,O=C1CCC(CNC(=O)c2nc(-c3ccccc3)cc3[nH]ccc23)N1 (configuration not stated)
18,74.2 ×10⁻⁶ cm/s,CCc1ccc(NC(=O)c2[nH]c(C)c(C(C)=O)c2C)cc1[S+](=O)([O-])Nc1ccccc1C#N
19,> 1000 ×10⁻⁶ cm/s,CCOc1cc(-c2nccc3cc(OC)c(OC)cc23)cc(OCC)c1OCC
20,415 ×10⁻⁶ cm/s,COc1ccc(-n2c(C)c(C(C)=O)c3cc(O)ccc32)cc1
